According to patent US20150031655A1, “COMBINATION OF LIVER X RECEPTOR MODULATOR AND ESTROGEN RECEPTOR MODULATOR FOR THE TREATMENT OF AGE-RELATED DISEASES” (UNIVERSITY OF NORTH DAKOTA, priority 2011, published 2015):
Values belong to the compound of their own block, whether it stands above or below them.

Tests used:
[1] = system: human neuroblastoma cells; settings: cited from earlier work
α-synuclein = assay: Western blot of α-synuclein protein levels in SH-SY5Y cells; type: cell-based, human; settings: for basal α-synuclein expression levels: treatment alone vs control
Protocol: (§1) Human neuroblastoma SH-SY5Y cells were grown in DMEM/F12 medium containing 10% fetal bovine serum (FBS) and 1% antibiotic/antimycotic mix. Cells were maintained at 37° C. in a saturated humidity atmosphere containing 95% air and 5% CO2.
(§2) Treated SH-SY5Y cells were washed with PBS and trypsinized to collect the cells and centrifuged at 5000 g. The pellet was washed again with PBS and homogenized in NE-PER tissue protein extraction reagent (Thermo Scientific, Rockford, Ill.) supplemented with protease and phosphatase inhibitors. Protein concentrations from the cytosolic and nuclear homogenates were determined with BCA protein assay.
(§3) Proteins (10 μg) were separated on SDS-PAGE gels, transferred to a polyvinylidene difluoride membrane (BioRad, Hercules, Calif.), and incubated with the following monoclonal antibodies: anti-TH mouse antibody (1:1000; Sigma Aldrich, Saint Louis, Mo.), anti-α-synuclein mouse antibody (1:500; Chemicon, Temecula, Calif.), anti-ERα rabbit antibody (1:500; Abcam, Cambridge, Mass.), anti-ERβ rabbit antibody (1:200; Upstate, Lake Placid, N.Y.), anti-LXRα rabbit antibody (1:500; Abcam, Cambridge, Mass.), anti-LXRβ mouse antibody (1:500; Abcam, Cambridge, Mass.).
(§4) β-actin and Lamin A were used as a gel loading control for cytosolic homogenates and nuclear homogenates respectively. The blots were developed with enhanced chemiluminescence (Immmun-star HRP chemiluminescent kit, Bio-Rad, Hercules, Calif.). Bands were visualized on a polyvinylidene difluoride membrane and analyzed by LabWorks 4.5 software on a UVP Bioimaging System (Upland, Calif.). Quantification of results was performed by densitometry and the results analyzed as total integrated densitometric values (arbitrary units).

[2] = system: experimental intracerebral hemorrhage; settings: 10 μmol.Kg^−1.day^−1 i.p.; cited from earlier work
[3] = in vivo; cited from earlier work
ERα/β = assay: EMSA, binding of nuclear ER to probe for the ERE half site in the TH promoter; type: cell-based, human
TH promoter = assay: Dual-luciferase TH promoter assay; type: cell-based, human
Protocol: Constructs encoding ERE and TH promoter conjugated to the firefly luciferase gene were used in the study. Human neuroblastoma SH-SY5Y cells were plated in 96-well plates at a density of 2×10^4 cells/well. The cells were transfected when 80% confluent with 0.25 μg of either ERE-firefly Luciferase reporter construct, LXRE-firefly Luciferase reporter construct, or TH promotor-firefly Luciferase promoter construct. Respective non-inducible reporter constructs containing constitutively expressing Renilla luciferase were used as negative internal controls. Constitutively expressing GFP constructs were used as positive control to determine transfection efficiency. Cells were incubated for 24 hours with Opti-MEM serum free medium (Invitrogen, Carlsbad, Calif.) containing the reporter constructs dissolved in transfection reagent. After 24 hours the medium was changed and the cells were incubated in normal DMEM/F12 medium containing 10% FBS and cells were treated with the different treatment regimens. The cells were treated in triplicate and harvested 24 hours later and subjected to dual-luciferases assay. The dual-luciferase assay was performed using a “Dual-Luciferase Reporter Assay System” from Promega (Madison, Wis.). The luminescence recorded is expressed as Relative Luminescence Units (RLU) and normalized to per mg protein. Unit value was assigned to control and the magnitude of differences among the samples is expressed relative to the unit value of control cells.

ARPE-19 cells = assay: ROS levels in ARPE-19 cells; type: cell-based; settings: ARPE-19, 24 h, co-treatment with 27-OHC, all at 10 μM
ERβ = target: T1, ERβ (Homo sapiens, UniProt Q92731); assay: Western blot of ERβ levels in the nucleus (nuclear translocation), SH-SY5Y cells; type: cell-based; settings: 24 h
T1 construct: endogenous in cells; host or cells: SH-SY5Y human neuroblastoma cells
T1 sequence (Q92731 whole entry): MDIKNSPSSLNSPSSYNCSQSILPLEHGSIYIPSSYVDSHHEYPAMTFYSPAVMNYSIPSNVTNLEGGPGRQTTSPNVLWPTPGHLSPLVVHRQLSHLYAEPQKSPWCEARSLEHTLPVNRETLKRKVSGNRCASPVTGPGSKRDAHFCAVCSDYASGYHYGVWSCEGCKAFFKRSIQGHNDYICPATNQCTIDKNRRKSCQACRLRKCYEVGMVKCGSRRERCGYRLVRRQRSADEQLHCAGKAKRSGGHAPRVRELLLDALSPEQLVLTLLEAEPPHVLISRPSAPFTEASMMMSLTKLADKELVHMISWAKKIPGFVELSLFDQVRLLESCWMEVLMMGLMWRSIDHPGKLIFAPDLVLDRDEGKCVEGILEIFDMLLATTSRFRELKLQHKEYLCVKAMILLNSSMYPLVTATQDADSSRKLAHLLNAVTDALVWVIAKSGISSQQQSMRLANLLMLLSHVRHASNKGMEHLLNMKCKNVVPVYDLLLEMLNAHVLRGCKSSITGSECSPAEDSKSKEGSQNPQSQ
Protocol: as §1, §2, §3, §4

TH = assay: Western blot of TH protein levels in SH-SY5Y neuroblastoma cells; type: cell-based, human; settings: 24 h
Protocol: as §1, §2, §3, §4

TNF-α = TNF-α levels in ARPE-19 cells; type: cell-based; settings: ARPE-19, 24 h, co-treatment with 27-OHC, all at 10 μM
TH mRNA = assay: Real time RT-PCR of TH mRNA in SH-SY5Y cells; type: cell-based, human; settings: 24 h
Protocol: as §1
Total RNA was isolated and extracted from treated cells using the 5 prime “PerfectPure RNA tissue kit” (5 Prime, Inc., Gaithersburg, Md.). RNA estimation was performed using “Quant-iT RNA Assay Kit” using a Qubit fluorometer according to the manufacturer's protocol (Invitrogen, Carlsbad, Calif.). cDNA was synthesized by reverse transcribing 1 μg of extracted RNA using an “iScript cDNA synthesis kit” (BioRad, Hercules, Calif.). The oligomeric primers (Sigma, St Louis, Mo.) used to amplify the TH mRNA and α-synuclein mRNA are enumerated in Table 1. The cDNA amplification was performed using an iQ SYBR Green Supermix kit following the manufacturer's instructions (BioRad, Hercules, Calif.). The amplification was performed using an iCycler iQ Multicolor Real Time PCR Detection System (BioRad, Hercules, Calif.). The expression of specific TH and α-synuclein transcripts amplified were normalized to the expression of glyceraldehyde-3-phosphate dehydrogenase (GAPDH).

Compound: CC(C)C(O)CC[C@@H](C)[C@H]1CC[C@H]2[C@@H]3CC=C4C[C@@H](O)CC[C@]4(C)[C@H]3CC[C@]12C (some centres unmarked) [24-OHC, 24-hydroxycholesterol]
- 27-OHC-induced effects on TH [1]: reverse
- 27-OHC-induced effects on α-synuclein [1]: reverse

Compound: C[C@]12CC[C@@H]3c4ccc(O)cc4C[C@@H](CCCCCCCCC[S+]([O-])CCCC(F)(F)C(F)(F)F)[C@H]3[C@@H]1CC[C@@H]2O (some centres unmarked) [ICI 182780, Fulvestrant]
- basal α-synuclein expression levels (α-synuclein): no effect

Compound: CCC1=C(C)c2cc3[n-]c(cc4[n-]c(cc5nc(cc1n2)C(C)=C5CC)c(C)c4CCC(=O)O)c(CCC(=O)O)c3C.[Cl-].[Cl-].[Sn+4] [SnMP, Tin-mesoporphyrin IX]
- protection against experimental intracerebral hemorrhage [2]: protect
- blood brain barrier passage [3]: crosses

- binding of nuclear ER to the DNA probe corresponding to the ERE-half site on the TH promoter (ERα/β): significantly increases
- inhibitory effects of 27-OHC on binding of ER to the exogenous DNA probe (ERα/β): completely reverses
- 27-OHC-induced reduction of TH promoter activity (TH promoter; concomitant with 27-OHC): completely reversed
- 27-OHC-induced attenuation in the nuclear translocation of ERβ (ERβ; concomitant with 10 μM 27-OHC): completely reduced
- nuclear translocation / nuclear levels of ERβ (ERβ; treatment alone vs control): increases
Compound: C[C@]12CC[C@@H]3c4ccc(O)cc4CC[C@H]3[C@@H]1CC[C@@H]2O [estradiol, 17β-estradiol]
- increase in basal TH promoter activity (TH promoter; SH-SY5Y transfected with TH promoter-luciferase, 24 h): 2.5 fold
- effect of ECHS on 27-OHC-induced increase in α-synuclein expression (α-synuclein; estradiol added to 27-OHC+ECHS): does not alter
- α-synuclein expression (α-synuclein; in combination with ECHS): no effect
- basal α-synuclein expression levels (α-synuclein): no effect
- 27-OHC-induced increase in ROS levels (ARPE-19 cells): not
- TH protein levels (TH; concomitant with 10 μM 27-OHC, compared to control or 27-OHC): significant increase
- TH protein levels / TH expression (TH; treatment alone vs control (10 μM 27-OHC, 1 nM estradiol, 10 μM GW3965, 10 μM ECHS)): profound increase
- 27-OHC-induced increase in TNF-α levels (TNF-α): reduced
- 27-OHC-induced attenuation of TH mRNA (TH mRNA; concomitant with 10 μM 27-OHC): completely reversed
- TH mRNA (TH mRNA; treatment alone vs control): increase
